In US9273276B2, “Devices and methods for pharmacokinetic-based cell culture system” (priority 2001, dated 2016):
Entries after “also recorded” stand apart in the source; their conditions may differ.

Tests used:
HCT-116 cells = test: Traditional in vitro cell culture assay, HCT-116 cells on poly-lysine treated glass coverslips; format: cell-based, human; conditions: for cell death of HCT-116 cells, traditional cell culture assay: coverslips, no liver cells, 48 hr exposure
Procedure: (§1) FIG. 16 Tegafur dose response. Chips were seeded with HepG2-C3A cells in the liver compartment and HCT-116 colon cancer cells in the target tissues compartment. The chips were treated with indicated concentrations of tegafur for 24 hours. The first graph (FIG. 16A) is a plot of percentage dead cells vs. tegafur or 5-FU concentration after 24 hours of re-circulation on the chip. The second graph (FIG. 16B) is a similar dose response using a traditional in vitro cell culture assay with HCT 116 cells using a 48 hour exposure. HCT-116 cells were seeded on poly-lysine treated glass coverslips and exposed to either tegafur or 5-FU at the indicated concentrations. After a 48 hr incubation, coverslips were treated as described above and the percentage of cell death was determined.
To measure the cytotoxic effects of tegafur against colon cancer cells, the microscale chip was prepared with HepG2-C3A cells in the liver compartment and HCT-116 human colon cancer cells in the target tissue compartment. Tegafur was added to the re-circulating medium at various concentrations for 24 hours and the cells labeled with Hoechst 33342, a membrane permeable DNA dye, and ethidium homodimer, a membrane impermeable DNA dye (see Methods Section).

[1] = test system: HCT-116 human colon cancer cells; conditions: for cell death of HCT-116 cells on chip without liver compartment cells: chips seeded with HCT-116 cells only, no cells in liver compartment, 24 hours
Procedure: as §1, with “Chips were seeded with HepG2-C3A cells in the liver compartment and HCT-116 colon cancer cells in the target tissues compartment.” left out
(§2) LIVE/DEAD stain is a two-component stain consisting of calcein AM and ethidium homodimer. Living cells actively hydrolyze the acetoxymethyl ester (AM) moiety of calcein AM to produce bright green fluorescence of calcein. In contrast, cells that have compromised membrane integrity allow the normally membrane impermeant ethidium homodimer to stain the nucleus of dead or dying cells fluorescent red. The cell permeant nuclear stain, Hoechst 33342 acts as a general stain for all cells. Together with the appropriate filter sets, living cells fluoresce green, dying or dead cells red, and all cells are quantified by a blue nuclear fluorescence. For experiments described herein, trypan blue was used at 0.2% (w/v), calcein AM at 1:20,000, propidium iodide at 1:5,000, and Hoechst 33342 at 10 μg/ml. Cells were visualized with a M2Bio stereofluorescence microscope (Zeiss). All experiments were repeated at least three times and measurements done in triplicate.
[…] Tegafur was added to the re-circulating medium at various concentrations for 24 hours and the cells labeled with Hoechst 33342, a membrane permeable DNA dye, and ethidium homodimer, a membrane impermeable DNA dye (see Methods Section).

HepG2/C3A cells [2] = test: LIVE/DEAD assay, HepG2/C3A cells on poly-D-lysine treated glass coverslips; format: cell-based, human; conditions: 1 μM, 24 hours
Text: as §2
The LIVE/DEAD assay was optimized (see Methods section) using cells grown on glass coverslips. Briefly, HepG2/C3A cells were seeded onto poly-D-lysine treated glass coverslips and treated with and without 1 μM staurosporine for 24 hours. […]

HepG2/C3A cells [3] = test: APOPTAG (TUNEL) apoptosis assay, HepG2/C3A cells on glass coverslips; format: cell-based, human; conditions: 1 μM, 24-hour incubation, compared to untreated controls
Text: (§3) In contrast to annexin V labeling, the APOPTAG™ kit (Intergen Co., MA) uses terminal deoxynucleotidyl transferase to label free 3′-OH DNA termini exposed during apoptotic DNA degradation and visualization using immunofluorescence (Li, X., Traganos, F., Melamed, M. R., and Darzynkiewicz, Z. (1995). Single-step procedure for labeling DNA strand breaks with flourescein- or BODIPY-conjugated deoxynucleotides: detection of apoptosis and bromodeoxyuridine incorporation. Cytometry 20, 172-180). Although this method is highly specific for apoptosis, the procedure cannot be done on-chip due to the fixation and incubation steps. Briefly, microscale chips were run under specified experimental conditions, the cell chips were removed from their housing units, fixed in 1% paraformaldehyde and processed with the APOPTAG™ kit using the manufacturer's protocol.
(§4) Two different assays to detect apoptosis were investigated. The first assay was the immunofluorescence-based terminal deoxynucleotidyl transferase […] nick end labeling (TUNEL) technique available in kit form as APOPTAG™ (Intergen Co., MA) (see Methods section). The assay was first optimized using cells grown on glass coverslips. Briefly, HepG2/C3A cells were seeded onto poly-D-lysine treated glass coverslips and treated with and without staurosporine. Coverslips were processed as described (see Methods section).

HCT116 cells [4] = test: APOPTAG (TUNEL) apoptosis assay on microscale chip (HepG2/C3A liver, HCT116 target tissues); format: cell-based, human; conditions: 1 μM, 24 hour exposure, compared to untreated controls
Text: as §3, §4

HCT116 cells [5] = test: LIVE/DEAD cytotoxicity assay on the microscale chip system (HepG2/C3A liver, HCT116 target tissues); format: cell-based, human; conditions: 1 μM, 24 hour treatment, compared to untreated control cell chips
Text: as §2
Two different assays to detect apoptosis were investigated. The first assay was the immunofluorescence-based terminal deoxynucleotidyl transferase BrdU nick end labeling (TUNEL) technique available in kit form as APOPTAG™ (Intergen Co., MA) (see Methods section).

[6] = test system: HepG2/C3A cells in the liver compartment and HCT116 cells in the target tissues compartment; test: Annexin V-FITC apoptosis assay on microscale chip system; format: cell-based, human; conditions: 1 μM, 6-hour treatment, compared to untreated control cell chips
Procedure: With the microscale chip, annexin V-FITC labeling was visualized directly on-chip, by first flushing the system with PBS, then recirculating annexin V-FITC (10 μg/ml in annexin V binding buffer, Clontech) for 30 min. Cells were then visualized directly using a FITC filter set.
Briefly, the microscale chip cell chips were seeded with HepG2/C3A cells in the liver compartment and HCT116 cells in the target tissues compartment. Cell chips were loaded onto the microscale chip system and treated with and without 1 μM staurosporine as described above. After a 6-hour incubation, the re-circulating medium was switched to PBS containing Annexin V-FITC and Hoechst 33342 and allowed to flow through the system for 30 minutes. Cell chips were removed from the acrylic housing and visualized under a fluorescent microscope. Cells were visualized under a fluorescent microscope and fluorescent images of identical fields were obtained using the appropriate filter sets.

[7] = test system: HT29 human colon cancer cells; test: Microscale chip, HepG2-C3A cells in liver compartment and HT29 cells in target tissue compartment, LIVE/DEAD staining; format: cell-based; conditions: 24 hours; for efficacy against HT-29 colon cancer cells on chip: HepG2-C3A cells in liver compartment, HT-29 cells with mutant p53
Text: as §2

O=c1[nH]cc(F)c(=O)[nH]1 [5-FU, 5-fluorouracil]
exposure before cytotoxicity was observed, traditional cell culture assay (HCT-116 cells; HCT-116 cells on coverslips): ≥ 48 h | cell death of HCT-116 cells, traditional cell culture assay (HCT-116 cells): triggered cell death | cell death of HCT-116 cells on chip without liver compartment cells [1]: caused substantial cell death

CN[C@@H]1C[C@H]2O[C@@](C)([C@@H]1OC)n1c3ccccc3c3c4c(c5c6ccccc6n2c5c31)C(=O)NC4 [Staurosporine]
cell death of HepG2/C3A cells (LIVE/DEAD) (HepG2/C3A cells [2]): clearly cause cell death | apoptosis of HepG2/C3A cells (APOPTAG) (HepG2/C3A cells [3]): caused significant apoptosis | apoptosis of HCT116 cells on chip (APOPTAG) (HCT116 cells [4]): significant apoptosis (or cytotoxicity) | cell death of HCT116 cells on chip (LIVE/DEAD) (HCT116 cells [5]): Significant cell death; also recorded: significant apoptosis (or cytotoxicity) | apoptosis on chip (annexin V-FITC) [6]: caused significant apoptosis

CC1=C(CC(=O)O)c2cc(F)ccc2/C1=C\c1ccc([S+](C)[O-])cc1 (centres unmarked) [Sulindac, sulindac sulfoxide]
efficacy against HT-29 colon cancer cells on chip [7]: effective | cell death of HT29 cells in target tissue compartment ([7]; One hundred micromoles, in the absence of the HepG2-C3A liver cells): minimal levels of cell death

O=c1[nH]c(=O)n(C2CCCO2)cc1F (centres unmarked) [Tegafur, 5-fluoro-1-(2-tetrahydrofuryl)-2,4(1H,3H)-pyrimidi-nedione]
cell death of HCT-116 cells, traditional cell culture assay (HCT-116 cells): ineffective | cytotoxicity to HCT-116 cells on chip [1]: cytotoxic to HCT-1-16-cells in a dose dependent fashion | cell death of HCT-116 cells on chip without liver compartment cells [1]: did not cause significant cell death | efficacy against HT-29 colon cancer cells on chip [7]: ineffective
